Measurements from BigSolDB 2.1.

CC(=O)Oc1ccccc1C(=O)Nc1ncc([N+](=O)[O-])s1
solubility (mole fraction)
Details | 273.15 K | 278.15 K | 283.15 K | 288.15 K | 293.15 K | 298.15 K | 303.15 K | 308.15 K | 313.15 K
in 1,4-dioxane | – | – | – | 0.0102 | 0.0131 | 0.0167 | 0.0207 | 0.0254 | 0.0311
in 2-butanone | 0.00334 | 0.00496 | 0.0066 | 0.00859 | 0.0107 | 0.0131 | 0.0158 | 0.0191 | 0.0229
in DMF | 0.0637 | 0.0672 | 0.0711 | 0.0751 | 0.0797 | 0.0846 | 0.0901 | 0.097 | 0.104
in NMP | 0.0878 | 0.09 | 0.0925 | 0.0953 | 0.098 | 0.101 | 0.105 | 0.109 | 0.113
in acetonitrile | 0.00082 | 0.000924 | 0.00103 | 0.00115 | 0.00127 | 0.00141 | 0.00158 | 0.00178 | 0.00201
in ethanol | 0.000117 | 0.000147 | 0.000179 | 0.000211 | 0.000246 | 0.000285 | 0.000331 | 0.000385 | 0.00045
in ethyl acetate | 0.00185 | 0.00206 | 0.00229 | 0.00252 | 0.00276 | 0.003 | 0.0033 | 0.00362 | 0.00399
in isopropanol | 0.000162 | 0.000202 | 0.000243 | 0.000287 | 0.000333 | 0.000383 | 0.000436 | 0.000502 | 0.00058
in methanol | 0.000103 | 0.000126 | 0.00015 | 0.000177 | 0.000202 | 0.00023 | 0.000261 | 0.000298 | 0.000334
in n-butanol | 0.000176 | 0.000214 | 0.000257 | 0.000303 | 0.000354 | 0.000408 | 0.000471 | 0.000541 | 0.000617
in n-propanol | 0.000138 | 0.000173 | 0.000211 | 0.00025 | 0.00029 | 0.000336 | 0.00039 | 0.000453 | 0.000525
in toluene | 7.6e-05 | 9.9e-05 | 0.000123 | 0.000146 | 0.00017 | 0.000197 | 0.000225 | 0.000258 | 0.000291
